Legend:
Human plasma kallikrein = biological target: T1, Human plasma kallikrein (Homo sapiens, UniProt P03952); test: Plasma Kallikrein Assay; format: biochemical; conditions: purified Human plasma kallikrein 0.5 nM, substrate Acetyl-K-P-R-AFC, HEPES pH 7.4; read-out: PKal IC50
T1 construct: yields a heavy chain (371 amino acids) and a light chain (248 amino acids); The active site of plasma kallikrein is contained in the light chain; purchased Enzyme Research Laboratories
Description: (§1) The effectiveness of a compound of the present invention as an inhibitor of plasma kallikrein can be determined using a relevant purified serine protease, and an appropriate synthetic substrate. The rate of hydrolysis of the chromogenic or fluorogenic substrate by the relevant serine protease was measured both in the absence and presence of compounds of the present invention. Assays were conducted at rt or at 37° C. […] A decrease in the rate of fluorescence change in the presence of inhibitor is indicative of enzyme inhibition. Such methods are known to one skilled in the art. The results of this assay are expressed as the half-maximal inhibitory concentrations (IC50), or the inhibitory constant, Ki.
Plasma kallikrein determinations were made in 50 mM HEPES buffer at pH 7.4 containing 150 mM NaCl, 5 mM CaCl2), and 0.1% PEG 8000 (polyethylene glycol; Fisher Scientific). Determinations were made using purified Human plasma kallikrein at a final concentration of 0.5 nM (Enzyme Research Laboratories) and the synthetic substrate, Acetyl-K—P—R-AFC (Sigma #C6608) at a concentration of […].
Times required to achieve equilibration between enzyme and inhibitor were determined in control experiments. […] IC50 was determined by inflection point from a four parameter logistic curve fit. Ki was calculated using the Cheng Prusoff equation, Ki=IC50/[…](1+([S]/Km)).

human factor XIa = human factor XIa (Homo sapiens, UniProt P03951); test: Factor XIa Assay; format: biochemical; conditions: human factor XIa 0.04 nM, substrate GPR-AFC, 30 min pre-incubation, 25° C., pH 7.4; read-out: FXIa IC50
Description: as §1, with “Coagulation factor XIa” for “plasma kallikrein”
Compounds were pre-incubated for 30 min at 25° C. with human (0.04 nM) factor XIa in 50 mM HEPES buffer with 150 mM sodium chloride, 5 mM calcium chloride, 0.1% PEG 8000, pH 7.4. factor XIa enzymatic activity was determined by addition of the substrate glycine-proline-arginine-7-amido-4-trifluoromethylcoumarin (GPR-AFC) and measurement of the fluorescence at 400/505 nm after a 60 min incubation at 25° C. The % inhibition for each data point was calculated from the data and analyzed using the log (inhibitor) vs. response four parameters equation to determine the half-maximal inhibitory concentrations (IC50). The IC50 were converted to equilibrium inhibitory constants (Ki) using the Cheng-Prusoff equation.

Sequence of human factor XIa (P03951 388-625 limits assumed): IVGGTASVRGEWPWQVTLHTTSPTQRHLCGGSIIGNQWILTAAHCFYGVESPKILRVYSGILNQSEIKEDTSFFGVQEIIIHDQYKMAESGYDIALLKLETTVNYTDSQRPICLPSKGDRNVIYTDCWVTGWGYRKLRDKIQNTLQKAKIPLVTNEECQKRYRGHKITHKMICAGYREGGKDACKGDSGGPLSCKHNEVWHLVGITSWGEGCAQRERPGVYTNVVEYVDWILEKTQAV
Sequence of human factor XIa (P03951 19-387 partner limits assumed): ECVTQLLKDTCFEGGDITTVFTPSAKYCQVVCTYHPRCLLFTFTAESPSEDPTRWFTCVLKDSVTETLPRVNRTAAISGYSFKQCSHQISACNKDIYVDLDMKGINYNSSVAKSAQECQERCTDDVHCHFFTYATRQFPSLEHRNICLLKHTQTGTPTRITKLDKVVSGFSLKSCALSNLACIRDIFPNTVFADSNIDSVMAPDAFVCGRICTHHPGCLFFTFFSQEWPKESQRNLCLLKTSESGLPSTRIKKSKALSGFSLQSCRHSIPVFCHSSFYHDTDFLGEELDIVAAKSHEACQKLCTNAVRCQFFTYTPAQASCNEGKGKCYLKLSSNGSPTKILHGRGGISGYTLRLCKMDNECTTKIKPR
T1 sequence (P03952 391-638 limits assumed): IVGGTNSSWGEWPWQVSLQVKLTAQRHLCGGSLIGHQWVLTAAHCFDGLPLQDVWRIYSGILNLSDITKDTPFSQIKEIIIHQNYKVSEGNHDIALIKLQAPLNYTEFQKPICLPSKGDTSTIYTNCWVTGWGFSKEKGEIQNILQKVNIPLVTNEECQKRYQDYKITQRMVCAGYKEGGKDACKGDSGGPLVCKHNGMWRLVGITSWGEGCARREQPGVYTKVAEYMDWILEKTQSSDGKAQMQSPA
T1 sequence (P03952 20-390 partner limits assumed): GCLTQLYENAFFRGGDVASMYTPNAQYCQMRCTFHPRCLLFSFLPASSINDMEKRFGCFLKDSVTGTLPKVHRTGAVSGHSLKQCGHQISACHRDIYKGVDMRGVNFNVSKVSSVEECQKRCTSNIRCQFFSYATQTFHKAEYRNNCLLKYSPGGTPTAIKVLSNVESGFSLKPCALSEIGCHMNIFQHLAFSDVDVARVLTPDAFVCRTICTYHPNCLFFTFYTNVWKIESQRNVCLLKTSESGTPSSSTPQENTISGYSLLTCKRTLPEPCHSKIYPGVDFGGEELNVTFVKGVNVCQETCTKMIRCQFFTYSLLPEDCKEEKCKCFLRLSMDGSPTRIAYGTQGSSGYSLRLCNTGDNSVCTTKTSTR

Compound	IC50 (Human plasma kallikrein) [nM]	IC50 (human factor XIa) [nM]
CCC(c1ccccc1)n1ncc(C(=O)N2CCC[C@@]3(C2)OC(=O)Nc2ccc(Cl)c(F)c23)c1N (single isomer, unassigned) [Example 116, (R)-1'-(5-Amino-1-((S or R)-1-phenylpropyl)-1H-pyrazole-4-carbonyl)-6-chloro-5-fluorospiro[benzo[d][1,3]oxazine-4,3'-piperidin]-2(1H)-one]	0.7	4
CCC(c1ccccc1)n1ncc(C(=O)N2CCC[C@@]3(C2)OC(=O)Nc2ccc(Cl)c(F)c23)c1N (single isomer, unassigned) [Example 117, (R)-1'-(5-Amino-1-((R or S)-1-phenylpropyl)-1H-pyrazole-4-carbonyl)-6-chloro-5-fluorospiro[benzo[d][1,3]oxazine-4,3'-piperidin]-2(1H)-one]	0.9	30
CC1(n2ncc(C(=O)N3CCC[C@@]4(C3)OC(=O)Nc3ccc(Cl)c(F)c34)c2N)CCS(=O)(=O)C1 (single isomer, unassigned) [Example 118, (R)-1'-(5-Amino-1-((R or S)-3-methyl-1,1-dioxidotetrahydrothiophen-3-y1)-1H-pyrazole-4-carbonyl)-6-chloro-5-fluorospiro[benzo[d][1,3]oxazine-4,3'-piperidin]-2(1H)-one]	24	1000
CC1(n2ncc(C(=O)N3CCC[C@@]4(C3)OC(=O)Nc3ccc(Cl)c(F)c34)c2N)CCS(=O)(=O)C1 (single isomer, unassigned) [Example 119]	21	1460
CC(n1ncc(C(=O)N2CCC[C@@]3(C2)OC(=O)Nc2ccc(Cl)c(F)c23)c1N)C(F)(F)F (single isomer, unassigned) [Example 120, (R)-1'-(5-Amino-1-((R or S)-1,1,1-trifluoropropan-2-y1)-1H-pyrazole-4-carbonyl)-6-chloro-5-fluorospiro[benzo[d][1,3]oxazine-4,3'-piperidin]-2(1H)-one]	4.3	221
CC(n1ncc(C(=O)N2CCC[C@@]3(C2)OC(=O)Nc2ccc(Cl)c(F)c23)c1N)C(F)(F)F (single isomer, unassigned) [Example 121, (R)-1'-(5-Amino-1-((S or R)-1,1,1-trifluoropropan-2-y1)-1H-pyrazole-4-carbonyl)-6-chloro-5-fluorospiro[benzo[d][1,3]oxazine-4,3'-piperidin]-2(1H)-one]	4.9	591
Nc1c(C(=O)N2CCC[C@@]3(C2)OC(=O)Nc2ccc(Cl)c(F)c23)cnn1CC(F)(F)F [Example 1, (R)-1′-(5-Amino-1-(2,2,2-trifluoroethyl)-1H-pyrazole-4-carbonyl)-6-chloro-5-fluorospiro[benzo[d][1,3]oxazine-4,3′-piperidin]-2(1H)-one]	11.2	408
CC1(C)CN(C(=O)c2cnn(CC(F)(F)F)c2N)C[C@]2(C1)OC(=O)Nc1ccc(Cl)c(F)c12 [Example 2, (R)-1′-(5-Amino-1-(2,2,2-trifluoroethyl)-1H-pyrazole-4-carbonyl)-6-chloro-5-fluoro-5′,5′-dimethylspiro[benzo[d][1,3]oxazine-4,3′-piperidin]-2(1H)-one]	2.7	211
Nc1c(C(=O)N2CCC[C@@]3(C2)OC(=O)Nc2ccc(Cl)c(F)c23)cnn1Cc1cccc(C(F)(F)F)c1 [Example 5, (R)-1'-(5-Amino-1-(3-(trifluoromethyl)benzy1)-1H-pyrazole-4-carbonyl)-6-chloro-5-fluorospiro[benzo[d][1,3]oxazine-4,3'-piperidin]-2(1H)-one]	1.7	726
Nc1c(C(=O)N2CCC[C@@]3(C2)OC(=O)Nc2ccc(Cl)c(F)c23)cnn1Cc1cccc(Cl)c1 [Example 6, (R)-1'-(5-Amino-1-(3-chlorobenzyl)-1H-pyrazole-4-carbonyl)-6-chloro-5-fluorospiro[benzo[d][1,3]oxazine-4,3'-piperidin]-2(1H)-one]	0.5	177

Second part, the molecule after the results:

IC50 (Human plasma kallikrein) [nM]	IC50 (human factor XIa) [nM]	Compound
1	95	Nc1c(C(=O)N2CCC[C@@]3(C2)OC(=O)Nc2ccc(Cl)c(F)c23)cnn1C(c1ccccc1)C(F)(F)F (single isomer, unassigned) [Example 122, (R)-1'-(5-Amino-1-((R or S)-2,2,2-trifluoro-1-phenylethyl)-1H-pyrazole-4-carbonyl)-6-chloro-5-fluorospiro[benzo[d][1,3]oxazine-4,3'-piperidin]-2(1H)-one]
0.9	74	Nc1c(C(=O)N2CCC[C@@]3(C2)OC(=O)Nc2ccc(Cl)c(F)c23)cnn1C(c1ccccc1)C(F)(F)F (single isomer, unassigned) [Example 123]
1.4	75	Nc1c(C(=O)N2CCC[C@@]3(C2)OC(=O)Nc2ccc(Cl)c(F)c23)cnn1C(C1CC1)C(F)(F)F (single isomer, unassigned) [Example 124, (R)-1'-(5-Amino-1-((R or S)-1-cyclopropyl-2,2,2-trifluoroethyl)-1H-pyrazole-4-carbonyl)-6-chloro-5-fluorospiro[benzo[d][1,3]oxazine-4,3'-piperidin]-2(1H)-one]
4.5	154	Nc1c(C(=O)N2CCC[C@@]3(C2)OC(=O)Nc2ccc(Cl)c(F)c23)cnn1C(C1CC1)C(F)(F)F (single isomer, unassigned) [Example 125, (R)-1'-(5-Amino-1-((S or R)-1-cyclopropyl-2,2,2-trifluoroethyl)-1H-pyrazole-4-carbonyl)-6-chloro-5-fluorospiro[benzo[d][1,3]oxazine-4,3'-piperidin]-2(1H)-one]
2.2	459	CC(C1CC1)(n1ncc(C(=O)N2CCC[C@@]3(C2)OC(=O)Nc2ccc(Cl)c(F)c23)c1N)C(F)(F)F (single isomer, unassigned) [Example 126, (R)-1'-(5-Amino-1-((R or S)-2-cyclopropyl-1,1,1-trifluoropropan-2-y1)-1H-pyrazole-4-carbonyl)-6-chloro-5-fluorospiro[benzo[d][1,3]oxazine-4,3'-piperidin]-2(1H)-one]
6.8	1020	CC(C1CC1)(n1ncc(C(=O)N2CCC[C@@]3(C2)OC(=O)Nc2ccc(Cl)c(F)c23)c1N)C(F)(F)F (single isomer, unassigned) [Example 127, (R)-1'-(5-Amino-1-((S or R)-2-cyclopropyl-1,1,1-trifluoropropan-2-y1)-1H-pyrazole-4-carbonyl)-6-chloro-5-fluorospiro[benzo[d][1,3]oxazine-4,3'-piperidin]-2(1H)-one]
4.7	973	COCC(C)(n1ncc(C(=O)N2CCC[C@@]3(C2)OC(=O)Nc2ccc(Cl)c(F)c23)c1N)C(F)(F)F (single isomer, unassigned) [Example 128, (R)-1'-(5-Amino-1-((R or S)-1,1,1-trifluoro-3-methoxy-2-methylpropan-2-y1)-1H-pyrazole-4-carbonyl)-6-chloro-5-fluorospiro[benzo[d][1,3]oxazine-4,3'-piperidin]-2(1H)-one]
6.5	898	COCC(C)(n1ncc(C(=O)N2CCC[C@@]3(C2)OC(=O)Nc2ccc(Cl)c(F)c23)c1N)C(F)(F)F (single isomer, unassigned) [Example 129]
1.6	8	CCC(n1ncc(C(=O)N2CC(C)(C)C[C@@]3(C2)OC(=O)Nc2ccc(Cl)c(F)c23)c1N)C(F)(F)F (single isomer, unassigned) [Example 130, (R)-1'-(5-Amino-1-((R or S)-1,1,1-trifluorobutan-2-y1)-1H-pyrazole-4-carbonyl)-6-chloro-5-fluoro-5',5'-dimethylspiro[benzo[d][1,3]oxazine-4,3'-piperidin]-2(1H)-one]
1.2	70	CCC(n1ncc(C(=O)N2CC(C)(C)C[C@@]3(C2)OC(=O)Nc2ccc(Cl)c(F)c23)c1N)C(F)(F)F (single isomer, unassigned) [Example 131, (R)-1'-(5-Amino-1-((S or R)-1,1,1-trifluorobutan-2-y1)-1H-pyrazole-4-carbonyl)-6-chloro-5-fluoro-5',5'-dimethylspiro[benzo[d][1,3]oxazine-4,3'-piperidin]-2(1H)-one]

— patent US12679848B2, “Plasma kallikrein inhibitors” (Merck Sharp & Dohme LLC, priority 2020, dated 2026)
